Test systems include A549 NSCLC; EKVX NSCLC; HOP-62 NSCLC; HT29 colon; KM12 colon; NCI-H23 lung; SF-268 CNS; SK-MEL-28 melanoma; SK-MEL-5 melanoma; U251 CNS.
Common to all, as to assay: DTP human tumour cell line panel, 48 h

These results are taken from PubChem BioAssay (NCI).

Usually TGI stands for the concentration at which net growth stops. A low value points to greater sensitivity of the cells. Broadly, the GI50 is the concentration at which growth is held to half of that of the control.

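Five compound concentrations were applied to cells in 96-well plates for 48 hours; endpoints were derived by simple linear interpolation of the resulting dose-response curve. Abbreviation: GI50, concentration required for 50% inhibition of growth. TGI is the concentration that stops growth completely.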 Bounds are passed on as bounds.

As for `CCN(CC)CCNc1ccc2ncn3c4ccc(O)cc4c(=O)c1c23`, the total growth inhibition concentration (TGI) was 7 µM in the assay on A549 NSCLC; 21.9 µM in the assay on EKVX NSCLC; 11.6 µM in the assay with HOP-62 NSCLC; 7.06 µM in the assay on HT29 colon; 10.6 µM with KM12 colon; 13.8 µM in the assay with NCI-H23 lung. Moreover, the TGI in the assay with SF-268 CNS is 13.6 µM; with SK-MEL-28 melanoma, 21.8 µM; in the assay on SK-MEL-5 melanoma, 10.4 µM; in the assay with U251 CNS, 2.75 µM.

With `CSCCC(C(=O)O)N(C)C` (stereo not given), the TGI in the assay with A549 NSCLC, with EKVX NSCLC, with HOP-62 NSCLC, in the assay with HT29 colon, with KM12 colon and in the assay on NCI-H23 lung was more than 100 µM each time. For the same compound, the TGI in the assay on SF-268 CNS, in the assay with SK-MEL-28 melanoma, with SK-MEL-5 melanoma and with U251 CNS was more than 100 µM in each case.

`C=C(C#N)C(=O)OCC(CC)CC.C=C(C#N)C(=O)OCC(CC)CC.CS(C)=O.CS(C)=O.Nc1c(N=Nc2ccc(-c3ccc(N=Nc4cc(S(=O)(=O)[O-])c5ccccc5c4N)cc3)cc2)cc(S(=O)(=O)[O-])c2ccccc12.[Pt+2]`: the GI50 with A549 NSCLC is more than 86.8 µM; in the assay with EKVX NSCLC, 26 µM; with HOP-62 NSCLC, more than 82.8 µM; in the assay with HT29 colon, 27.2 µM; in the assay with KM12 colon it was 46.6 µM; in the assay with NCI-H23 lung, 40.7 µM. Moreover, the GI50 was 24.9 µM in the assay with SF-268 CNS, 21.7 µM in the assay on SK-MEL-28 melanoma, 34.1 µM in the assay with SK-MEL-5 melanoma and 46.7 µM in the assay with U251 CNS. Further, the TGI in the assay with A549 NSCLC was more than 100 µM; with EKVX NSCLC, 63.3 µM; in the assay on HOP-62 NSCLC, more than 100 µM; with HT29 colon it was more than 69.7 µM; in the assay with KM12 colon, more than 100 µM; in the assay on NCI-H23 lung, more than 100 µM. The TGI is 59.1 µM in the assay with SF-268 CNS, 43 µM with SK-MEL-28 melanoma, more than 77.4 µM in the assay on SK-MEL-5 melanoma and more than 100 µM in the assay with U251 CNS.

With `O=C1c2cc(O)c(O)cc2O[C@H](c2ccc(O)c(O)c2)[C@H]1O`, the TGI in the assay on A549 NSCLC, in the assay on EKVX NSCLC, in the assay with HOP-62 NSCLC, in the assay with HT29 colon, with KM12 colon and in the assay with NCI-H23 lung was more than 100 µM in each case. Also, the TGI with SF-268 CNS, in the assay on SK-MEL-28 melanoma, in the assay with SK-MEL-5 melanoma and in the assay with U251 CNS was more than 100 µM throughout.

With `CN1C(=O)CC(=O)N1/C(=C/c1ccccc1)c1ccccc1`, the TGI in the assay on A549 NSCLC, in the assay on EKVX NSCLC, with HOP-62 NSCLC, with HT29 colon, in the assay with KM12 colon and with NCI-H23 lung was more than 100 µM throughout. For the same compound, the TGI in the assay on SF-268 CNS, in the assay on SK-MEL-28 melanoma, with SK-MEL-5 melanoma and with U251 CNS was more than 100 µM each time.

On to `O=C1c2cc3c(cc2-c2c1c1ccc(Cl)cc1c(=O)n2C[C@H](O)CO)OCO3`, for which the GI50 in the assay on A549 NSCLC was 0.0568 µM; with EKVX NSCLC it was 0.153 µM; in the assay on HOP-62 NSCLC it was 0.022 µM; in the assay on HT29 colon it was 0.0348 µM; in the assay with KM12 colon it was 0.113 µM; in the assay on NCI-H23 lung, 0.0366 µM. Further, the 50% growth inhibitory concentration (GI50) with SF-268 CNS is 0.0185 µM; in the assay on SK-MEL-28 melanoma it was 0.2 µM; in the assay with SK-MEL-5 melanoma it was 0.0322 µM; with U251 CNS, 0.0198 µM. The TGI with A549 NSCLC was 0.72 µM; in the assay with EKVX NSCLC, 1.52 µM; in the assay on HOP-62 NSCLC, 1.51 µM; with HT29 colon, more than 100 µM; in the assay on KM12 colon it was 0.618 µM; in the assay with NCI-H23 lung it was 0.714 µM. For the same compound, the TGI was 1.04 µM with SF-268 CNS, 1.28 µM with SK-MEL-28 melanoma, 0.114 µM in the assay on SK-MEL-5 melanoma and 1.28 µM in the assay with U251 CNS.

On to `O=c1[nH]c2[nH]c(=S)[nH]c(=S)c2[nH]1`, for which the TGI with A549 NSCLC, with EKVX NSCLC, in the assay with HOP-62 NSCLC, in the assay on HT29 colon, with KM12 colon and in the assay on NCI-H23 lung was more than 100 µM in each case. The TGI in the assay on SF-268 CNS, in the assay with SK-MEL-28 melanoma, in the assay on SK-MEL-5 melanoma and in the assay with U251 CNS was more than 100 µM each time.

On to `C=CCNC(=O)C(C)C1CCC2(C)C=CC(=O)C(C)=C2C1O` (stereo not given), for which the total growth inhibition concentration (TGI) with A549 NSCLC, with EKVX NSCLC, in the assay with HOP-62 NSCLC, with HT29 colon, in the assay with KM12 colon and with NCI-H23 lung was more than 100 µM each time. Besides, the TGI with SF-268 CNS, in the assay with SK-MEL-28 melanoma, in the assay with SK-MEL-5 melanoma and with U251 CNS was more than 100 µM in each case.

For the compound `COc1ccc2nc3cc(Cl)ccc3c(NC(C)CCCN(CCCl)CCCl)c2c1` (stereo not given), the TGI in the assay on A549 NSCLC turned out to be 7.04 µM; with EKVX NSCLC it was 18.2 µM; in the assay with HOP-62 NSCLC, 7.38 µM; in the assay with HT29 colon it was 2.81 µM; with KM12 colon, 4.6 µM; with NCI-H23 lung, 2.89 µM. The TGI was found to be 4.28 µM with SF-268 CNS, 18.4 µM with SK-MEL-28 melanoma, 7.89 µM with SK-MEL-5 melanoma and 5.65 µM in the assay with U251 CNS.

`Oc1ccc(C(=C(Br)c2ccccc2)c2ccc(O)cc2)cc1`: the TGI in the assay on A549 NSCLC came out at 19.4 µM; with EKVX NSCLC, 26.2 µM; in the assay with HOP-62 NSCLC, 22.2 µM; in the assay on HT29 colon, 4.78 µM; in the assay on KM12 colon, 13.5 µM; in the assay on NCI-H23 lung, 23.7 µM. The TGI in the assay on SF-268 CNS amounted to 16.5 µM; with SK-MEL-28 melanoma it was 24 µM; with SK-MEL-5 melanoma it was 12.5 µM; with U251 CNS it was 15.3 µM.

On to `O=C1c2ccccc2C(=O)c2[nH]cnc21`, for which the TGI with A549 NSCLC, in the assay with EKVX NSCLC, in the assay with HOP-62 NSCLC, in the assay on HT29 colon, in the assay with KM12 colon and in the assay on NCI-H23 lung was more than 100 µM in each case. Besides, the TGI in the assay on SF-268 CNS was more than 100 µM; with SK-MEL-28 melanoma it was more than 100 µM; in the assay on SK-MEL-5 melanoma it was 34.2 µM; in the assay on U251 CNS, more than 100 µM.

Turning to `O=C1C(Cl)N(c2ccccc2Cl)C1c1c[nH]c2ccccc12` (stereo not given), the TGI with A549 NSCLC, in the assay on EKVX NSCLC, in the assay with HOP-62 NSCLC, in the assay on HT29 colon, in the assay on KM12 colon and with NCI-H23 lung was more than 100 µM in each case. Further, the TGI in the assay with SF-268 CNS, in the assay on SK-MEL-28 melanoma, in the assay on SK-MEL-5 melanoma and with U251 CNS was more than 100 µM throughout.
